From PMC11106739, “Discovery and Derivatization of Tridecaptin Antibiotics with Altered Host Specificity and Enhanced Bioactivity” (ACS Chemical Biology, 2024)
Converted amounts (≈) assume the structure as drawn. Where a SMILES comes first, the peptide text is derived from it. [ ]: non-standard residue; d: D form. The star is where a group is joined. d(aIle) = CC[C@H](C)[C@@H](N)C(=O)O; dDab = NCC[C@@H](N)C(=O)O; Octanoyl = CCCCCCCC(=O)*; Dab = NCC[C@H](N)C(=O)O

Key:
K. pneumoniae ATCC 13883 = type: cell-based, Klebsiella pneumoniae; details: ATCC 13883, 20 h
Procedure: (§1) All minimum inhibitory concentrations (MICs) were determined according to the Clinical and Standards Laboratory Institute (CLSI) guidelines. In brief, agar plates were inoculated from glycerol stocks and incubated overnight at 35 °C. Peptide DMSO stocks were dispensed into 96-well round-bottom plates using a TECAN D300e dispenser. Colistin sulfate (Sigma-Aldrich) was dissolved in water and serially diluted in a cation-adjusted Mueller Hinton broth (10 μL per well). Final concentrations of the test compounds were 0.06 to 64 μg/mL. Inocula were prepared by direct colony suspension in NaCl at 0.5 MacFarland, which was further diluted 200-fold in cation-adjusted Mueller Hinton broth for a target inoculum of 2 × 10^5 colony forming units (CFUs)/mL. 100 μL portion of the prepared inoculum was added to each well of the prepared plates containing the test compounds. Plates were sealed with parafilm and incubated for 20 h at 35 °C. Images of all plates were recorded, and MIC was assessed visually.

K. pneumoniae 1228586 = type: cell-based, Klebsiella pneumoniae; details: 1228586, 20 h
Procedure: as §1

K. pneumoniae 1227947 = type: cell-based, Klebsiella pneumoniae; details: 1227947, 20 h
Procedure: as §1

P. aeruginosa PAO1 = type: cell-based, Pseudomonas aeruginosa; details: PAO1, 20 h
Procedure: as §1

P. aeruginosa 1218019 = type: cell-based, Pseudomonas aeruginosa; details: 1218019, 20 h
Procedure: as §1

P. aeruginosa 1226072 = type: cell-based, Pseudomonas aeruginosa; details: 1226072, 20 h
Procedure: as §1

E. faecium ATCC 51559 = type: cell-based, Enterococcus faecium; details: ATCC 51559, 20 h
Procedure: as §1

E. faecium IHMA 890472 = type: cell-based, Enterococcus faecium; details: IHMA 890472, 20 h
Procedure: as §1

A. baumannii ATCC 17978 = type: cell-based, Acinetobacter baumannii; details: ATCC 17978, 20 h
Procedure: as §1

A. baumannii IHMA 777621 = type: cell-based, Acinetobacter baumannii; details: IHMA 777621, 20 h
Procedure: as §1

A. baumannii HUMC1 = type: cell-based, Acinetobacter baumannii; details: HUMC1, 20 h
Procedure: as §1

E. coli ATCC 25922 = type: cell-based, Escherichia coli; details: ATCC 25922, 20 h
Procedure: as §1

E. coli 1220120 = type: cell-based, Escherichia coli; details: 1220120, 20 h
Procedure: as §1

E. coli 1214245 = type: cell-based, Escherichia coli; details: 1214245, 20 h
Procedure: as §1

S. aureus 1126387 = type: cell-based, Staphylococcus aureus; details: 1126387, 20 h
Procedure: as §1

S. aureus UAMS-1625 = type: cell-based, Staphylococcus aureus; details: S. aureus UAMS-1625 (BV18); CLSI broth dilution, cation-adjusted Mueller Hinton broth, 20 h, 35 °C, read visually
Procedure: as §1

S. aureus ATCC 29213 [1] = type: cell-based, Staphylococcus aureus; details: ATCC 29213, 20 h
Procedure: as §1

S. aureus ATCC 29213 [2] = experiment: LIVE/DEAD staining (SYTO 9 / propidium iodide); type: cell-based, Staphylococcus aureus; details: S. aureus ATCC 29213, 1 × MIC, 15 min, microscopy
Procedure: This assay was performed according to a previously described procedure.[55],[56] Briefly, overnight cultures of E. coli ATCC 25922 and S. aureus ATCC 29213 were diluted to an OD600 of 0.2 in MHB and mixed with 1 × MIC of Oct-TriA1, Oct-TriA5, and Oct-TriD. Nisin and polymyxin B were used as positive controls at a concentration of 2-fold MIC. At the same time, green fluorescent nucleic acid stain SYTO 9 (excitation, 450–490 nm; emission, 500–550 nm) and red fluorescent nucleic acid stain propidium iodide (excitation, 574–599 nm; emission, 612–682 nm) (LIVE/DEAD Baclight Bacterial Viability Kit, Invitrogen) were added to the above cell suspensions. After mixing and incubating for 15 min in the dark at RT, cells were briefly sedimented via centrifugation and resuspended in fresh MHB. Then, the cell suspensions were loaded on 1.5% agarose pads and analyzed by a Zeiss Imager M2 microscope. Confocal images were obtained at 4 random locations for each sample and visualized using FIJI version 1.51H.[57]

E. faecalis ATCC 29212 = type: cell-based, Enterococcus faecalis; details: ATCC 29212, 20 h
Procedure: as §1

ATCC 25922 = type: cell-based, Enterococcus faecalis; details: ATCC 25922, 20 h
Procedure: as §1

Compound	MIC (K. pneumoniae ATCC 13883)	MIC (K. pneumoniae 1228586)	MIC (K. pneumoniae 1227947)	MIC (P. aeruginosa PAO1)	MIC (P. aeruginosa 1218019)	MIC (P. aeruginosa 1226072)	MIC (E. faecium ATCC 51559)	MIC (E. faecium IHMA 890472)	MIC (A. baumannii ATCC 17978)	MIC (A. baumannii IHMA 777621)	MIC (A. baumannii HUMC1)	MIC (E. coli ATCC 25922)	MIC (E. coli 1220120)	MIC (E. coli 1214245)	MIC (S. aureus 1126387)	MIC (S. aureus UAMS-1625)	MIC (S. aureus ATCC 29213 [1])	LIVE/DEAD staining, membrane integrity of S. aureus cells (S. aureus ATCC 29213 [2])	MIC (E. faecalis ATCC 29212)	MIC (ATCC 25922)
CCCCCCCC(=O)N[C@@H](C(=O)N[C@H](CCN)C(=O)NCC(=O)N[C@H](CO)C(=O)N[C@H](Cc1c[nH]c2ccccc12)C(=O)N[C@@H](CO)C(=O)N[C@@H](CCN)C(=O)N[C@H](CCN)C(=O)N[C@@H](Cc1ccccc1)C(=O)N[C@@H](CCC(=O)O)C(=O)N[C@H](C(=O)N[C@@H](C(=O)N[C@@H](C)C(=O)O)[C@@H](C)CC)C(C)C)C(C)C [Oct-TriA1] (Octanoyl-[dV][dDab]G[dS][dW]S[Dab][dDab]FEV[d(aIle)]A-OH)	4 µg/mL (≈ 2.63 µM)	4 µg/mL (≈ 2.63 µM)	4 µg/mL (≈ 2.63 µM)	64 µg/mL (≈ 42.1 µM)	4 µg/mL (≈ 2.63 µM)	8 µg/mL (≈ 5.26 µM)	32 µg/mL (≈ 21 µM)	16 µg/mL (≈ 10.5 µM)	8 µg/mL (≈ 5.26 µM)	8 µg/mL (≈ 5.26 µM)	16 µg/mL (≈ 10.5 µM)	2 µg/mL (≈ 1.32 µM)	2 µg/mL (≈ 1.32 µM)	2 µg/mL (≈ 1.32 µM)	32 µg/mL (≈ 21 µM)	32 µg/mL (≈ 21 µM)	32 µg/mL (≈ 21 µM)	still alive	32 µg/mL (≈ 21 µM)	32 µg/mL (≈ 21 µM)
CCCCCCCC(=O)N[C@H](Cc1ccccc1)C(=O)N[C@H](CCN)C(=O)N[C@@H](C(=O)N[C@H](CO)C(=O)N[C@H](Cc1c[nH]c2ccccc12)C(=O)N[C@@H](CO)C(=O)N[C@@H](CO)C(=O)N[C@H](CCN)C(=O)N[C@@H](Cc1c[nH]c2ccccc12)C(=O)N[C@@H](CO)C(=O)N[C@H](C(=O)N[C@@H](C(=O)N[C@@H](CCN)C(=O)O)[C@@H](C)CC)C(C)C)[C@H](C)CC [Oct-TriD] (Octanoyl-[dF][dDab][dI][dS][dW]SS[dDab]WSV[d(aIle)][Dab]-OH)	8 µg/mL (≈ 4.88 µM)	64 µg/mL (≈ 39.1 µM)	>64 µg/mL	>64 µg/mL	32 µg/mL (≈ 19.5 µM)	32 µg/mL (≈ 19.5 µM)	4 µg/mL (≈ 2.44 µM)	4 µg/mL (≈ 2.44 µM)	16 µg/mL (≈ 9.77 µM)	8 µg/mL (≈ 4.88 µM)	16 µg/mL (≈ 9.77 µM)	32 µg/mL (≈ 19.5 µM)	16 µg/mL (≈ 9.77 µM)	16 µg/mL (≈ 9.77 µM)	16 µg/mL (≈ 9.77 µM)	16 µg/mL (≈ 9.77 µM)	8 µg/mL (≈ 4.88 µM)	had lysed	8 µg/mL (≈ 4.88 µM)	8 µg/mL (≈ 4.88 µM)
